From publication PMC6572189, “Functional Fragments of AIMP1-Derived Peptide (AdP) and Optimized Hydrosol for Their Topical Deposition by Box-Behnken Design” (Molecules, 2019)

Key:
[1] = test system: Foreskin fibroblasts (HFF-1); experiment: Collagen ELISA (procollagen type I in culture media); type: cell-based; details: Fr3 0.1 μg/mL versus EGF 1 μg/mL, HFF-1 foreskin fibroblasts, 24 h
Procedure: (§1) Figure 1 Fibroblast-activating (FA) and melanin-inhibiting (MI) domain mapping of AIMP1-derived peptide (AdP): (a) Foreskin fibroblasts were treated with EGF (1 μg/mL), AdP (0.1 μg/mL), and fragments of AdP (Fr1–Fr6; 0.1 μg/mL). After 24 h incubation, procollagen type I was determined in cultured media by ELISA; (b) after 48 h incubation, CCK8-assay was performed to monitor the proliferation of foreskin fibroblasts; (c) melanocytes, pre-treated with α-MSH (0.5 μM), were treated with albutin (At, 10 μM), AdP (1 μg/mL) and fragments of AdP (Fr1–Fr6, 1 μg/mL). After 48 h incubation, intracellular melanin was measured.
Foreskin fibroblast cells (HFF-1; 5 × 10^4 cells/well) were seeded at a 24-well culture plate. Before peptide treatment, cells were pre-incubated with serum-free DMEM media for 6 h. Cells were treated with AdP, hEGF (Sigma-Aldrich, St. Louis, MO, USA) and fragments of AdP for 24 h. After 24 h treatment, media were harvested for collagen ELISA assay. Procollagen type I in the culture media was determined by Procollagen type I ELISA kit (Takara, Kusatsu, Japan) in accordance with the manufacturer instructions. Procollagen type I amount in the media was normalized by the Procollagen type I amount of control group.

[2] = test system: Foreskin fibroblasts (HFF-1); experiment: Fibroblast proliferation assay (CCK-8); type: cell-based; details: Fr3 0.1 μg/mL versus EGF 1 μg/mL; HFF-1 foreskin fibroblasts, 48 h, CCK-8 assay
Procedure: as §1
Foreskin fibroblast cells (HFF-1; 3 × 10^3 cells/well) were seeded into 96-well plate and cultivated. Cells were replaced with serum-free media and then treated with AdP, hEGF, and fragments of AdP for 48 h. Cell proliferation was determined CCK-8 assay (Dojindo, Kumamoto, Japan) in accordance with the manufacturer instructions. Proliferation was normalized by the proliferation of control group.

[3] = test system: keratinocytes (HaCaT cells); experiment: Cytotoxicity test (CCK-8); type: cell-based; details: 10 or 100 μg/mL (up to 100 μg/mL), 24 h, CCK-8 assay, n = 3
Procedure: (§2) Figure 2 Non-cytotoxicity and non-immunogenicity of FA-AdP and MI-AdP: (a) To test cytotoxicity of FA-AdP and MI-AdP, keratinocytes (HaCaT cells) were incubated with doxorubicin (Dox, 10 μM), AdP (100 μg/mL), FA-AdP (10 or 100 μg/mL), and MI-AdP (10 or 100 μg/mL). After 24 h incubation, cytotoxicity was determined by CCK-8 assay; (b) for the immunogenicity test, monocytes (THP-1 cells) were used. After 12 h incubation with LPS (50 ng/mL), AdP (100 μg/mL), FA-AdP (10 or 100 μg/mL), and MI-AdP (10 or 100 μg/mL), the TNF-α level was measured in cultured media by ELISA.
(§3) The safety of FA-AdP and MI-AdP was verified in terms of cytotoxicity and immunogenicity. To test the cytotoxicity of the peptides, keratinocytes (HaCaT; 3 × 10^3 cells/well) were seeded into 96-well plate and cultivated. Cells were incubated with doxorubicin (Dox, 10 μM), AdP (100 μg/mL), FA-AdP (10 or 100 μg/mL), or MI-AdP (10 or 100 μg/mL). After 24 h incubation, cytotoxicity was determined by CCK-8 assay (Dojindo) according to the manufacturer’s manual. The immunogenicity of the peptides was evaluated by performing TNF-α ELISA. THP-1 cells (5 × 10^4 cells/well) were seeded on a 24-well plate. Cells were pre-incubated with 1% FBS containing media for 6 h. […] TNF-α amount in conditioned media was assessed by human TNF-α ELISA kit (BD Bioscience, San Jose, CA, USA) in accordance with the manufacturer instructions. […]

monocytes (THP-1 cells) = experiment: Immunogenicity test (TNF-α ELISA); type: cell-based, human; details: 10 or 100 μg/mL, 12 h, TNF-α ELISA of cultured media, normalized to control, n = 3
Procedure: as §2, §3

Melanocytes (B16F10) = experiment: Measurement of intracellular melanin in α-MSH induced melanocytes; type: cell-based; details: α-MSH 0.5 μM, 48 h
Procedure: as §1
Melanocytes (B16F10; 1 × 10^5 cells/well) were seeded into 6-well plate and cultivated. To induce melanin synthesis, α-MSH (0.5 μM), melanin inducer, was used. AdP and fragments of AdP were treated with α-MSH (0.5 μM) for 48 h. Intracellular melanin and tyrosinase activity were monitored as previously reported. Briefly, melanocytes (1 × 10^5 cells,) were lysed with 1 N NaOH at 70 °C for 1 h. Intracellular melanin was determined in lysed samples by 490 nm wavelength absorbance using microplate reader (Synergy 2, BioTek, Winooski, VM, USA).

Substance | collagen induction, more potent than EGF [1] [%] | fibroblast proliferation, more potent than EGF [2] [%] | cytotoxicity in keratinocytes [3] | TNF-α level compared with that of the control group (monocytes (THP-1 cells)) | inhibition effect on melanin synthesis, higher than albutin (Melanocytes (B16F10); Fr4 1 μg/mL versus albutin 10 μM) [%] | inhibition of melanin synthesis induced by α-MSH, compared with AdP (Melanocytes (B16F10); 1 μg/mL, intracellular melanin by absorbance at 490 nm, mean n = 3, versus AdP 1 μg/mL)
Fr3: 14–28 residue fragment of AIMP1; fibroblast-activating domain of AdP (KGAEADQIIEYLKQQ; UniProt Q12904 14-28, looked up, fragment) | 15 | 10 | no cytotoxicity | no significant difference | – | –
Fr4: 18–32 residue fragment of AIMP1; melanocyte-inhibiting domain of AdP (ADQIIEYLKQQVSLL; UniProt Q12904 18-32, looked up, fragment) | – | – | no cytotoxicity | no significant difference | 35 | comparable inhibition
